Laboratory results published in ChEMBL document CHEMBL6078680, “Improving the Stability and Anti-Infective Activity of Sea Turtle AMPs Using Multiple Structural Modification Strategies” (J Med Chem, 2024).
Calls of active or inactive are those of the source. No cut-off for these calls is given here. Positions of bridges follow the written chain, without caps; N, C: chain ends. Residues, ends and D or L forms follow the SMILES beside them.

Tests used:
Escherichia coli [1] = test: Antimicrobial activity against Escherichia coli CMCC44102 assessed as reduction in microbial growth incubated for 18 hrs by broth microdilution method; type: functional
Staphylococcus aureus [2] = test: Antimicrobial activity against Staphylococcus aureus CMCC 26003 assessed as reduction in microbial growth incubated for 18 hrs by broth microdilution method; type: functional
Clostridium perfringens = test: Antimicrobial activity against Clostridium perfringens ATCC 13124 assessed as reduction in microbial growth incubated for 18 hrs by broth microdilution method; type: functional
Staphylococcus aureus [3] = test: Antimicrobial activity against Staphylococcus aureus ATCC 43300 assessed as reduction in microbial growth incubated for 18 hrs by broth microdilution method; type: functional
Enterococcus faecalis = test: Antimicrobial activity against Enterococcus faecalis ATCC 29217 assessed as reduction in microbial growth incubated for 18 hrs by broth microdilution method; type: functional
[4] = system: Staphylococcus epidermidis; test: Antimicrobial activity against Staphylococcus epidermidis assessed as reduction in microbial growth incubated for 18 hrs by broth microdilution method; type: functional
Staphylococcus aureus [5] = test: Antimicrobial activity against Staphylococcus aureus 08032706 assessed as reduction in microbial growth incubated for 18 hrs by broth microdilution method; type: functional
Peritoneal macrophage [6] = test: Antiinflammatory activity in mouse Peritoneal macrophage cells assessed as inhibition of LPS-induced TNF-alpha production at 20 microg/ml incubated for 6 hrs by ELISA analysis; type: functional, cell-based; conditions: dose 20.0 µg/ml
Peritoneal macrophage [7] = test: Antiinflammatory activity in mouse Peritoneal macrophage cells assessed as inhibition of LPS-induced IL-6 production at 20 microg/ml incubated for 6 hrs by ELISA analysis; type: functional, cell-based; conditions: dose 20.0 µg/ml
Staphylococcus aureus [8] = test: Antimicrobial activity against Staphylococcus aureus CMCC 26003 at 5 times MIC measured at 180 mins; type: functional, organism-based
Acinetobacter baumannii [9] = test: Drug resistance, ratio of MIC for Acinetobacter baumannii ATCC1960 after 40 passages to MIC for Acinetobacter baumannii ATCC1960 during first exposure; type: functional
Escherichia coli [10] = test: Drug resistance, ratio of MIC for Escherichia coli ATCC 25922 after 40 passages to MIC for Escherichia coli ATCC 25922 during first exposure; type: functional
Staphylococcus aureus [11] = test: Antibiofilm activity against Staphylococcus aureus CMCC 26003 assessed as inhibition of biofilm formation incubated for 48 hrs by crystal violet staining based analysis; type: functional, organism-based
Acinetobacter baumannii [12] = test: Antibiofilm activity against Acinetobacter baumannii ATCC 19606 assessed as inhibition of biofilm formation incubated for 48 hrs by crystal violet staining based analysis; type: functional, organism-based
Staphylococcus aureus [13] = test: Antibiofilm activity against Staphylococcus aureus CMCC 26003 assessed as biofilm eradication incubated for 24 hrs by crystal violet staining based analysis; type: functional, organism-based
Acinetobacter baumannii [14] = test: Antibiofilm activity against Acinetobacter baumannii ATCC 19606 assessed as biofilm eradication incubated for 24 hrs by crystal violet staining based analysis; type: functional, organism-based
Staphylococcus aureus [15] = test: Antibiofilm activity against Staphylococcus aureus CMCC 26003 assessed as reduction in biofilm formation at 0.5 times MIC incubated for 24 hrs by crystal violet staining based analysis; type: functional; design: scale not given: the % may be the effect or the level left
Staphylococcus aureus [16] = test: Antibiofilm activity against Staphylococcus aureus CMCC 26003 assessed as biofilm eradication at 8 times MIC incubated for 24 hrs by crystal violet staining based analysis; type: functional
Acinetobacter baumannii [17] = test: Antipersister-activity against Acinetobacter baumannii ATCC 19606 assessed as elimination of persister cells at 50 times MIC preincubated adherent persistent cells with colistin incubation for 24 hrs; type: functional
Cell membrane [18] = test: Disruption of cell membrane integrity in Escherichia coli ATCC 25922 assessed as cell membrane damage at 5 times MIC measured after 30 mins by scanning electron microscopic analysis; type: subcellular
Cell membrane [19] = test: Disruption of cell membrane integrity in Staphylococcus aureus CMCC 26003 assessed as cell membrane damage at 5 times MIC measured after 30 mins by scanning electron microscopic analysis; type: subcellular
Escherichia coli [20] = test: Antibacterial activity against Escherichia coli ATCC 25922 assessed as increase in intracellular ROS production at 2 to 5 times MIC by DCFH-DA staining based assay; type: functional, organism-based
Staphylococcus aureus [21] = test: Antibacterial activity against Staphylococcus aureus CMCC 26003 assessed as increase in intracellular ROS production incubated for 1 hr by DCFH-DA staining based assay; type: functional, organism-based
Staphylococcus aureus [22] = test: Bactericidal activity against Staphylococcus aureus CMCC 26003 assessed as bacterial eradication incubated at 0.5 hrs in presence of thiourea; type: functional, organism-based
Escherichia coli [23] = test: Antibacterial activity against Escherichia coli ATCC 25922 at 1 times MIC in presence of exogenous DNA; type: functional, organism-based
[24] = Acute toxicity in BALB/c mouse assessed as mortality at 10 mg/kg, iv measured for 24 hrs; type: organism-based; conditions: in vivo, read-out: Activity
[25] = Acute toxicity in BALB/c mouse assessed as mortality at 20 mg/kg, iv measured for 24 hrs; type: organism-based; conditions: in vivo, read-out: Activity
[26] = Acute toxicity in BALB/c mouse assessed as mortality at 50 mg/kg, iv measured for 24 hrs; type: organism-based; conditions: in vivo, read-out: Activity
[27] = Acute toxicity in BALB/c mouse assessed as effect on ALT level at 10 mg/kg, iv measured for 24 hrs; type: organism-based; conditions: in vivo
Acinetobacter baumannii [28] = test: In vivo antibacterial activity against Acinetobacter baumannii ATCC19606 infected in BALB/c mouse assessed as survival at 15 mg/kg, ip administered for 12 hrs and measured after 3 hrs; type: functional; conditions: time 15 hrs
Acinetobacter baumannii [29] = test: In vivo antibacterial activity against Acinetobacter baumannii ATCC19606 infected in BALB/c mouse assessed as reduction in bacterial load at 15 mg/kg, ip; type: functional, organism-based; conditions: time 3.0 hrs
Acinetobacter baumannii [30] = test: In vivo antibacterial activity against Acinetobacter baumannii ATCC19606 infected in BALB/c mouse assessed as reduction in bacterial load in liver at 15 mg/kg, ip measured after 3 hrs; type: functional, organism-based
Acinetobacter baumannii [31] = test: In vivo antibacterial activity against Acinetobacter baumannii ATCC19606 infected in BALB/c mouse assessed as reduction in bacterial load in lung at 15 mg/kg, ip measured after 3 hrs; type: functional, organism-based
Acinetobacter baumannii [32] = test: In vivo antibacterial activity against Acinetobacter baumannii ATCC19606 infected in BALB/c mouse assessed as reduction in bacterial load in kidney at 15 mg/kg, ip measured after 3 hrs; type: functional, organism-based
Acinetobacter baumannii [33] = test: In vivo antibacterial activity against Acinetobacter baumannii ATCC19606 infected in BALB/c mouse assessed as reduction in bacterial load in lung at 15 mg/kg, ip measured after 12 hrs; type: functional, organism-based
Acinetobacter baumannii [34] = test: In vivo antibacterial activity against Acinetobacter baumannii ATCC19606 infected in BALB/c mouse assessed as reduction in bacterial load in kidney at 15 mg/kg, ip measured after 12 hrs; type: functional, organism-based
Acinetobacter baumannii [35] = test: Antibiofilm activity against Acinetobacter baumannii ATCC 19606 assessed as inhibition of biofilm formation at 0.5 times MIC incubated for 48 hrs by crystal violet staining based analysis; type: functional
Staphylococcus aureus [36] = test: Antipersister-activity against Staphylococcus aureus CMCC 26003 assessed as elimination of persister cells at 50 times MIC preincubated adherent persistent cells with colistin incubation for 24 hrs; type: functional
Escherichia coli [37] = test: Antibacterial activity against Escherichia coli ATCC 25922 assessed as increase in intracellular ROS production at 1 times MIC by DCFH-DA staining based assay; type: functional, organism-based
[38] = Acute toxicity in BALB/c mouse assessed as effect on BUN level at 10 mg/kg, iv measured for 24 hrs; type: organism-based; conditions: in vivo

Structure (SMILES) | MIC (Escherichia coli [1]) | MIC (Staphylococcus aureus [2]) | MIC (Clostridium perfringens) | MIC (Staphylococcus aureus [3]) | MIC (Enterococcus faecalis) | MIC [4] | MIC (Staphylococcus aureus [5]) | Activity (Peritoneal macrophage [6]) | Activity (Peritoneal macrophage [7]) | Activity (Staphylococcus aureus [8]) | Ratio (Acinetobacter baumannii [9]) | Ratio (Escherichia coli [10]) | Activity (Staphylococcus aureus [11]) | Activity (Acinetobacter baumannii [12]) | Activity (Staphylococcus aureus [13]) | Activity (Acinetobacter baumannii [14]) | Activity (Staphylococcus aureus [15]) | Activity (Staphylococcus aureus [16]) | Activity (Acinetobacter baumannii [17]) | Activity (Cell membrane [18]) | further results
CC[C@H](C)[C@H](NC(=O)[C@@H](CCCNC(=N)N)NC(=O)[C@H](CO)NC(=O)[C@H](Cc1c[nH]cn1)NC(=O)[C@@H](CCCNC(=N)N)NC(=O)[C@H](CC(C)C)NC(=O)[C@@H](NC(=O)[C@@H](CCCNC(=N)N)NC(=O)CNC(=O)[C@H](CC(C)C)NC(=O)[C@H](CCC(N)=O)NC(=O)[C@@H](CCCCN)NC(=O)[C@@H](CCCNC(=N)N)NC(=O)[C@@H](NC(=O)[C@@H](CCCCN)NC(=O)[C@@H](CCCCN)NC(=O)[C@@H](N)Cc1ccccc1)C(C)C)C(C)C)C(=O)N[C@H](C(=O)N[C@H](C(=O)NCC(=O)NCC(=O)N[C@H](CCCNC(=N)N)C(=O)N[C@@H](CCSC)C(=O)N[C@H](CCCNC(=N)N)C(=O)N[C@@H](Cc1ccccc1)C(=O)O)C(C)C)[C@@H](C)O | 18.8 µg/mL | 75 µg/mL | 18.8 µg/mL | > 100 µg/mL | 37.5 µg/mL | 75 µg/mL | 75 µg/mL | Active | Active | inactive | 1 | 1 | Active | Active | Active | Active | 20% | 50% | 60% | Active | Activity (Cell membrane [19]): Active; Activity (Escherichia coli [20]): Active; Activity (Staphylococcus aureus [21]): Dose-dependent-effect; Activity (Staphylococcus aureus [22]): Active; Activity (Escherichia coli [23]): Active; mortality at 24 h [24]: 0%; mortality at 24 h [25]: 33%; mortality at 24 h [26]: 0%; Activity [27]: Non-toxic; Activity (Acinetobacter baumannii [28]): >60%; Activity (Acinetobacter baumannii [29]): Time-dependent-effect; Activity (Acinetobacter baumannii [30]): Active; Activity (Acinetobacter baumannii [31]): Active; Activity (Acinetobacter baumannii [32]): Active; Activity (Acinetobacter baumannii [33]): Active; Activity (Acinetobacter baumannii [34]): Active
CC[C@H](C)[C@H](NC(=O)[C@H](CCCNC(=N)N)NC(=O)[C@H](CO)NC(=O)[C@@H]1CSSC[C@H](N)C(=O)N[C@@H](Cc2ccccc2)C(=O)N[C@@H](CCCCN)C(=O)N[C@@H](CCCCN)C(=O)N[C@@H](C(C)C)C(=O)N[C@@H](CCCNC(=N)N)C(=O)N[C@@H](CCCCN)C(=O)N[C@@H](CCC(N)=O)C(=O)N[C@@H](CC(C)C)C(=O)NCC(=O)N[C@@H](CCCNC(=N)N)C(=O)N[C@@H](C(C)C)C(=O)N[C@@H](CC(C)C)C(=O)N[C@@H](CCCNC(=N)N)C(=O)N[C@@H](Cc2c[nH]cn2)C(=O)N1)C(=O)N[C@H](C(=O)N[C@H](C(=O)NCC(=O)NCC(=O)N[C@@H](CCCNC(=N)N)C(=O)N[C@@H](CCSC)C(=O)N[C@@H](CCCNC(=N)N)C(=O)N[C@@H](Cc1ccccc1)C(=O)O)C(C)C)[C@@H](C)O (H-CFKKVRKQLGRVLRHCSRITVGGRMRF-OH; disulfide 1-16) | 4.69 µg/mL | 18.8 µg/mL | 9.38 µg/mL | 18.8 µg/mL | 37.5 µg/mL | 9.38 µg/mL | 9.38 µg/mL | Active | Active | inactive | 1 | 1 | Active | Active | Active | Active | 20% | 74.3% | 60% | Active | inhibition (INH) (Acinetobacter baumannii [35]): 10%; Activity (Staphylococcus aureus [36]): 50%; Activity (Cell membrane [19]): Active; Activity (Escherichia coli [37]): Active; Activity (Staphylococcus aureus [21]): Dose-dependent-effect; Activity (Escherichia coli [23]): Active; mortality at 24 h [24]: 0%; mortality at 24 h [25]: 100%; mortality at 24 h [26]: 50%; Activity [38]: Non-toxic; Activity [27]: Non-toxic; Activity (Acinetobacter baumannii [28]): >60%; Activity (Acinetobacter baumannii [29]): Time-dependent-effect; Activity (Acinetobacter baumannii [30]): Active; Activity (Acinetobacter baumannii [31]): Active; Activity (Acinetobacter baumannii [32]): Active; Activity (Acinetobacter baumannii [33]): Active; Activity (Acinetobacter baumannii [34]): Active
